Measured values taken from patent US11856974B2, “Highly soluble stevia sweetener” (PureCircle Sdn Bhd, priority 2011, dated 2024).
Read-outs that look alike come from different tables or passages of the source.

Tests used:
[1] = Solubility comparison of spray dried amorphous powder samples; format: physicochemical; settings: room temperature
Experimental: Hereinafter, unless specified otherwise, the solubility of material is determined in RO (reverse osmosis) water at room temperature. Where the solubility is expressed as “%” it to be understood as number of grams of material soluble in 100 grams of solvent.

[2] = Solubility in RO water at room temperature; format: physicochemical; settings: % = grams soluble in 100 grams of solvent
Experimental: Hereinafter, unless specified otherwise, the solubility of material is determined in RO (reverse osmosis) water at room temperature.

[3] = cited from earlier work
[4] = background description of Rebaudioside A forms, % = grams soluble in 100 grams of solvent, cited from earlier work

With `C=C1C[C@@]23CC[C@H]4[C@@](C)(CCC[C@@]4(C)C(=O)O[C@@H]4O[C@H](CO)[C@@H](O)[C@H](O)[C@H]4O)[C@@H]2CC[C@]1(O[C@@H]1O[C@H](CO)[C@@H](O)[C@H](O[C@@H]2O[C@H](CO)[C@@H](O)[C@H](O)[C@H]2O)[C@H]1O[C@@H]1O[C@H](CO)[C@@H](O)[C@H](O)[C@H]1O)C3` [Sample #3, Rebaudioside A] the “Observation (solubility)” value ([1]; at 5% in water) was “Clear solution”, the “Observation (solubility)” value ([1]; at 10% in water) was “Clear solution” and the “Observation (solubility)” value ([1]; at 20% in water) was “Clear solution”. The “Observation (solubility)” value ([1]; at 30% in water) was “Clear solution” and the “Observation (solubility)” value ([1]; at 40% in water) was “Slightly cloudy”.

With `C=C1C[C@@]23CC[C@H]4[C@@](C)(CCC[C@@]4(C)C(=O)O[C@@H]4O[C@H](CO)[C@@H](O)[C@H](O)[C@H]4O)[C@@H]2CC[C@]1(O[C@@H]1O[C@H](CO)[C@@H](O)[C@H](O[C@@H]2O[C@H](CO)[C@@H](O)[C@H](O)[C@H]2O)[C@H]1O[C@@H]1O[C@H](CO)[C@@H](O)[C@H](O)[C@H]1O)C3` [highly soluble amorphous form of rebaudioside A] the solubility in water [2] was “greater than 30%”.

In the case of `C=C1C[C@@]23CC[C@H]4[C@@](C)(CCC[C@@]4(C)C(=O)O[C@@H]4O[C@H](CO)[C@@H](O)[C@H](O)[C@H]4O)[C@@H]2CC[C@]1(O[C@@H]1O[C@H](CO)[C@@H](O)[C@H](O[C@@H]2O[C@H](CO)[C@@H](O)[C@H](O)[C@H]2O)[C@H]1O[C@@H]1O[C@H](CO)[C@@H](O)[C@H](O)[C@H]1O)C3` [Form 4, Rebaudioside A], the “Rate of dissolution in H2O at 25° C.” value ([3]; grade in words) is listed as “High” and the “Rate of dissolution in H2O at 25° C.” value ([3]; in 5 minutes) is listed as > 35%.

With `C=C1C[C@@]23CC[C@H]4[C@@](C)(CCC[C@@]4(C)C(=O)O[C@@H]4O[C@H](CO)[C@@H](O)[C@H](O)[C@H]4O)[C@@H]2CC[C@]1(O[C@@H]1O[C@H](CO)[C@@H](O)[C@H](O[C@@H]2O[C@H](CO)[C@@H](O)[C@H](O)[C@H]2O)[C@H]1O[C@@H]1O[C@H](CO)[C@@H](O)[C@H](O)[C@H]1O)C3` [Sample #1, Rebaudioside A] the “Observation (solubility)” value ([1]; at 5% in water) was “Clear solution”, the “Observation (solubility)” value ([1]; at 10% in water) was “Slightly cloudy” and the “Observation (solubility)” value ([1]; at 20% in water) was “Cloudy solution”. The “Observation (solubility)” value ([1]; at 30% in water) was “Undissolved matter”.

For `C=C1C[C@@]23CC[C@H]4[C@@](C)(CCC[C@@]4(C)C(=O)O[C@@H]4O[C@H](CO)[C@@H](O)[C@H](O)[C@H]4O)[C@@H]2CC[C@]1(O[C@@H]1O[C@H](CO)[C@@H](O)[C@H](O[C@@H]2O[C@H](CO)[C@@H](O)[C@H](O)[C@H]2O)[C@H]1O[C@@H]1O[C@H](CO)[C@@H](O)[C@H](O)[C@H]1O)C3` [Crystalline Rebaudioside A, Rebaudioside A], the solubility [4] is given as 1%-2%.

In the case of `C=C1C[C@@]23CC[C@H]4[C@@](C)(CCC[C@@]4(C)C(=O)O[C@@H]4O[C@H](CO)[C@@H](O)[C@H](O)[C@H]4O)[C@@H]2CC[C@]1(O[C@@H]1O[C@H](CO)[C@@H](O)[C@H](O[C@@H]2O[C@H](CO)[C@@H](O)[C@H](O)[C@H]2O)[C@H]1O[C@@H]1O[C@H](CO)[C@@H](O)[C@H](O)[C@H]1O)C3` [Form 2, Rebaudioside A], the “Rate of dissolution in H2O at 25° C.” value ([3]; grade in words) is given as “Intermediate” and the solubility ([4]; listed as anhydrous form) is given as “up to 30%”.

For `C=C1C[C@@]23CC[C@H]4[C@@](C)(CCC[C@@]4(C)C(=O)O[C@@H]4O[C@H](CO)[C@@H](O)[C@H](O)[C@H]4O)[C@@H]2CC[C@]1(O[C@@H]1O[C@H](CO)[C@@H](O)[C@H](O[C@@H]2O[C@H](CO)[C@@H](O)[C@H](O)[C@H]2O)[C@H]1O[C@@H]1O[C@H](CO)[C@@H](O)[C@H](O)[C@H]1O)C3` [Form 3, Rebaudioside A], the “Rate of dissolution in H2O at 25° C.” value ([3]; grade in words) is listed as “High” and the “Rate of dissolution in H2O at 25° C.” value ([3]; in 5 minutes) is listed as > 30%.

`C=C1C[C@@]23CC[C@H]4[C@@](C)(CCC[C@@]4(C)C(=O)O[C@@H]4O[C@H](CO)[C@@H](O)[C@H](O)[C@H]4O)[C@@H]2CC[C@]1(O[C@@H]1O[C@H](CO)[C@@H](O)[C@H](O[C@@H]2O[C@H](CO)[C@@H](O)[C@H](O)[C@H]2O)[C@H]1O[C@@H]1O[C@H](CO)[C@@H](O)[C@H](O)[C@H]1O)C3` [rebaudioside A] showed a solubility in water [2] of 0.6%.

In the case of `C=C1C[C@@]23CC[C@H]4[C@@](C)(CCC[C@@]4(C)C(=O)O[C@@H]4O[C@H](CO)[C@@H](O)[C@H](O)[C@H]4O)[C@@H]2CC[C@]1(O[C@@H]1O[C@H](CO)[C@@H](O)[C@H](O[C@@H]2O[C@H](CO)[C@@H](O)[C@H](O)[C@H]2O)[C@H]1O[C@@H]1O[C@H](CO)[C@@H](O)[C@H](O)[C@H]1O)C3` [Sample #2, Rebaudioside A], the “Observation (solubility)” value ([1]; at 5% in water) was “Clear solution”, the “Observation (solubility)” value ([1]; at 10% in water) was “Clear solution” and the “Observation (solubility)” value ([1]; at 20% in water) was “Slightly cloudy”. The “Observation (solubility)” value ([1]; at 30% in water) was “Cloudy solution”.

For `C=C1C[C@@]23CC[C@H]4[C@@](C)(CCC[C@@]4(C)C(=O)O[C@@H]4O[C@H](CO)[C@@H](O)[C@H](O)[C@H]4O)[C@@H]2CC[C@]1(O[C@@H]1O[C@H](CO)[C@@H](O)[C@H](O[C@@H]2O[C@H](CO)[C@@H](O)[C@H](O)[C@H]2O)[C@H]1O[C@@H]1O[C@H](CO)[C@@H](O)[C@H](O)[C@H]1O)C3` [Form 1, Rebaudioside A], the “Rate of dissolution in H2O at 25° C.” value ([3]; grade in words) is listed as “Very low”, the “Rate of dissolution in H2O at 25° C.” value ([3]; in 60 minutes) is listed as “(<0.2% in 60” and the solubility ([4]; listed as hydrate form) is listed as “less than 0.2%”.
